Measured values taken from article PMC5471521, “Novel selective β1-adrenoceptor antagonists for concomitant cardiovascular and respiratory disease” (The FASEB Journal, 2017).
Like-named read-outs stand apart in the source and are kept apart here.

Columns and labels:
[1] = Aqueous solubility by nephelometry; format: physicochemical; conditions: kinetic from dmso stock
Protocol: NDD-713.HCl and -825.HCl were added to either aqueous phosphate buffer (pH 6.5) or 0.01 M aqueous HCl (pH ∼2) at final DMSO concentrations of 1%. Samples were analyzed by nephelometry to determine solubility ranges ([48]). Studies were carried out by the Centre for Drug Candidate Optimisation (CDCO; Monash University, Melbourne, VIC, Australia).

β1-AR vs. β2-AR = assay: Calculation of selectivity indices (receptor occupancy, PK-pharmacodynamic ternary complex model); conditions: human, exercise HR vs FEV1, ternary complex model
[2] = Metabolic stability, rat hepatocytes; format: in vitro ADME
Protocol: NDD-713.HCl and -825.HCl were incubated (0.02, 0.1, or 0.5 μM at 37°C, 120 min) with human (XenoTech, Kansas City, KS, USA) or rat liver microsomes (BD Biosciences, Brea, CA, USA) at 0.4 mg/ml protein concentration. Metabolic reaction was initiated by addition of NADPH-regenerating system or NADPH-regenerating system with uridine diphosphate glucuronic acid. Samples were quenched at time points by acetonitrile addition. Control samples, which contained neither NADPH, nor uridine diphosphate glucuronic acid, were monitored for degradation. Compound concentrations were determined by ultraperformance LC-MS (UPLC-MS) relative to calibration standards that were prepared in quenched liver microsomes and fitted to exponential decay functions to determine first-order rate constants (k) for substrate depletion. These were used to calculate in vitro intrinsic clearance (CLint) values: CLint = k/microsomal protein content (0.4 mg protein/ml). Metabolic stability assays that used rat liver cytosol (BD Biosciences), human cryopreserved hepatocytes, or rat hepatocytes were carried out similarly. Average viable cell concentrations were determined by Trypan Blue exclusion methods (in the absence of test compounds). Studies were carried out by CDCO.

human β1-AR = target: T1, human β1-AR (Homo sapiens, UniProt P08588); assay: Antagonism of cimaterol-induced 3H-cAMP accumulation in CHO-β1 cells; format: cell-based; conditions: for Schild slope: CHO-β1 cells, 3 antagonist concentrations, 1 = competitive antagonism; for Kd: Gaddum equation, cimaterol agonist, mean ± SEM, read-out: Log Kd,β1 (converted); for SI1b (in vitro inhibition of functional response) = Kd,β2/Kd,β1: Kd values from antagonism of cimaterol-induced 3H-cAMP accumulation, Table 2; for β1 vs. β2 selectivity Kd,β2/Kd,β1: from antagonism of cimaterol-induced 3H-cAMP accumulation
T1 construct: expressed in transfected cells
T1 sequence (P08588 whole entry): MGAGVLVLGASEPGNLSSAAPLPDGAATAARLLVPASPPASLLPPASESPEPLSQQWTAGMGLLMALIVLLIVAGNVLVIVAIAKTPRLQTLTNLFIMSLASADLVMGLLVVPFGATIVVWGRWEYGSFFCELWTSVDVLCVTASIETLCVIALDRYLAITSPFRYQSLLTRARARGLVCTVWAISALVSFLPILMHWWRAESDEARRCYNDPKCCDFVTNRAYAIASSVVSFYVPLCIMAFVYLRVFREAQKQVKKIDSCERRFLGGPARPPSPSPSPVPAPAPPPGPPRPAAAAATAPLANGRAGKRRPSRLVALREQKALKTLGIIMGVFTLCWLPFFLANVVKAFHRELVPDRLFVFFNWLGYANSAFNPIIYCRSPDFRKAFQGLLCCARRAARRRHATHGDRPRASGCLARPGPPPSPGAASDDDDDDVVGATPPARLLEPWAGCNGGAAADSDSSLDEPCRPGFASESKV
Protocol: Confluent cells were examined (24-well plates, 5 h incubation at 37°C) as described in Baker ([45]). Antagonist Kd values were calculated from a rightward shift of the agonist concentration response curve by using the Gaddum equation as previously described ([46]).

CYP2D6 = CYP2D6 (Homo sapiens, UniProt P10635); assay: P450 inhibition in human liver microsomes; format: in vitro ADME; set-up: in human liver microsomes (batch 34689 for CYP1A2 and CYP3A4; batch 0910251 for CYP2C9, CYP2C19, and CYP2D6); tissue batch 0910251; host or cells: human liver microsomes; conditions: 0.25–20 μM, hydrochloride salts used
Sequence of CYP2D6 (P10635 whole entry, canonical isoform): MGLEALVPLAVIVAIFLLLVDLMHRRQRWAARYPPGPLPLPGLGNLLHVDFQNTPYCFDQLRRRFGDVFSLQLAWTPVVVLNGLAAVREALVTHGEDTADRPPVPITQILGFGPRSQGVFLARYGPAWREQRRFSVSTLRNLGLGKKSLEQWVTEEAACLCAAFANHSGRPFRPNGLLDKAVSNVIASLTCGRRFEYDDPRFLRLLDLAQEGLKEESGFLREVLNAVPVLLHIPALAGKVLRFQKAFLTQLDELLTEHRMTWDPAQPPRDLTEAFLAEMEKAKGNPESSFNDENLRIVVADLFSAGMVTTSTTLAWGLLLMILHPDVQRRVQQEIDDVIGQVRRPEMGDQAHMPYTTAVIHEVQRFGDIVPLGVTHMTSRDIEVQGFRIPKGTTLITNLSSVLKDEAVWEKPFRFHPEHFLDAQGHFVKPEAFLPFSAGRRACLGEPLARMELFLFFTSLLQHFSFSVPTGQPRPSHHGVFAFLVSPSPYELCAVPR
Protocol: Concentrations of NDD-713.HCl and -825.HCl (0.25–20 μM) were incubated in triplicate (37°C for 4–40 min) with substrates specific for individual P450 isoforms (see Supplemental Data for full details) in human liver microsomes (batch 34689 for CYP1A2 and CYP3A4; batch 0910251 for CYP2C9, CYP2C19, and CYP2D6) at protein concentrations of 0.4 mg/ml (CYP1A2, CYP2C9, CYP2D6 and CYP3A4/5) or 1.0 mg/ml (CYP2C19) and a total organic solvent concentration <1%. Reaction was initiated by addition of NADPH-regenerating system and samples were quenched by addition of ice-cold acetonitrile, which contained 0.15 μg/ml diazepam as an internal standard, before determination of the concentration of specific metabolites by LC-MS. Compound IC50 values (and positive control) for each P450 isoform was assessed according to %reduction in formation of the specific metabolite (maximal metabolite formation occurring in the absence of inhibitor). […] Control samples were included to confirm that the LC-MS assay was not affected by test compounds (and potential metabolites). Studies were carried out by CDCO.

[3] = Protein binding by ultracentrifugation, rat plasma; format: in vitro ADME; conditions: male, Sprague-Dawley, read-out: fu rat plasma
Protocol: Protein binding of 1 µM NDD-713.HCl and -825.HCl in human and rat plasma, as well as human liver microsomes, was assessed by using the ultracentrifugation technique. Frozen human plasma (Australian Red Cross Blood Service, Melbourne, VIC, Australia) and rat plasma (male Sprague-Dawley rats; Charles River, Margate, Kent, United Kingdom) were thawed at 37°C. Human liver microsomes (XenoTech) were suspended in 0.1 M phosphate buffer (pH 7.4) at protein concentrations of 0.4 mg/ml. Samples were collected immediately as stability reference controls. Spiked plasma samples (but not microsome samples) were incubated at 37°C for 1 h. […] NDD-713.HCl and -825.HCl concentrations of noncentrifuged matrix and protein-free supernatant were determined by UPLC-MS relative to calibration standards prepared in the respective matrices. Total concentration (Ctotal) was the average measured concentration in […] samples maintained at 37°C, and unbound concentration (Cunbound) was the average measured concentration in protein-free supernatants from centrifuged samples (n = 3). The compound unbound fraction (fu) was calculated: fu = Cunbound/Ctotal. Compound degradation was assessed by comparing concentrations in noncentrifuged plasma samples that were incubated at 37°C with concentrations measured in the t = 0 noncentrifuged samples. […]

HepG2 cells = assay: HepG2 cytotoxicity (CellTiter-Glo); format: cell-based, human; conditions: 24 h, even at the limits of aqueous solubility
Protocol: Human hepatocyte carcinoma cells (HepG2; European Collection of Cell Cultures, Salisbury, United Kingdom) were grown in accordance with their guidelines by using DMEM. Cells at a density of 30,000 cells/well in 96-well plates were incubated overnight (37°C, 5% CO2 atmosphere). Medium was then removed and replaced with DMEM that contained control or compounds (1, 10, and 100 μM; n = 2 per concentration) for 24 h before addition of 100 μl/well of CellTiter-Glo Reagent (Promega, Madison, WI, USA) for ATP measurement and shaken to induce cell lysis. Luminescence was quantified on an AnalystAD plate-reader (Molecular Devices, Sunnyvale, CA, USA). Thioridizine (known HepG2 cytotoxicity) was used as positive control. Study was carried out by BioFocus DPI (Saffron Walden, United Kingdom).

[4] = 0.01 M aqueous HCl, simulated gastric fluid, pH 2.0, hydrochloride salts used, read-out: Aqueous solubility Saq at pH 2.0
[5] = aqueous phosphate buffer, aqueous buffer, pH 6.5, hydrochloride salts used, read-out: Aqueous solubility Saq at pH 6.5

| Structure (SMILES) | solubility [1, 4] [µg/mL] | solubility [1, 5] [µg/mL] | SI3 (in vivo pharmacologic response) = Eβ1/Eβ2 (β1-AR vs. β2-AR) | CLint rat hepatocytes [2] | Schild slope (human β1-AR) | Kd (human β1-AR) [nM] | SI1b (in vitro inhibition of functional response) = Kd,β2/Kd,β1 (human β1-AR) | β1 vs. β2 selectivity Kd,β2/Kd,β1 (human β1-AR) | IC50 (CYP2D6) [nM] | fraction unbound at 1 h, 1 µM [3] | Cytotoxic effects in HepG2 cell viability assay (HepG2 cells) | hepatocyte CLint ([2]; hepatocytes) [µL/min/1e6 cells] |
| --- | --- | --- | --- | --- | --- | --- | --- | --- | --- | --- | --- | --- |
| NC(=O)c1ccc(OCCNC[C@H](O)COc2ccc3c(c2)OC[C@@H](COCC2CC2)O3)cc1 [NDD-713] | > 100 | 25 to 50 | 67 | minimal | 1.06 ± 0.03 | 3.02 | 1202 | 1202 | > 20000 | 0.16 | no cytotoxic effects |  |
| O=C1NCc2cc(OCCNC[C@H](O)COc3ccc4c(c3)OC[C@@H](COCC3CC3)O4)ccc21 [NDD-825] | > 100 | 50 to 100 | 81 |  | 1.04 ± 0.02 | 1.02 | 1738 | 1738 | > 20000 | 0.11 | no cytotoxic effects | 5 |
